Test results taken from patent US5428048A, “Aryl-N-hydroxyureas as inhibitors of 5-lipoxygenase and anto-arteriosclerotic agents” (American Home Products Corporation, priority 1993, dated 1995).

Key:
Lipoxygenase = experiment: Ex-Vivo Measurement of Lipoxygenase Inhibition in Orally Dosed Rats (LTB4 in A23187-stimulated blood); parameters: species or system Male Sprague Dawley rats; conditions: ex vivo rat, p.o.
Protocol: 2. […] After an interval of 3 or 6 hours, the rats were anesthetized with metofane (n =4/group) and blood collected in heparinized tubes. White blood cell counts and differentials were made. One ml of blood from each animal was placed in a 5 ml plastic tube in a shaker bath at 37° C. A23187 at a final concentration of 10 μM was added to the blood and the blood vortexed and incubated for 15 min at 37° C. with gentle shaking. Incubation was terminated by vortexing sample and centrifuging immediately at 1200 xG for 15 min at 4° C. The plasma was transferred to 15 ml plastic tubes each containing 8 ml of methanol to precipitate protein followed by vortexing. The samples were stored at -70° C. overnight and the next day the samples were centrifuged at 800 xG for 15 min to pellet the precipitate. The samples were dried in a Savant SpeedVac Concentrator Model SVC 200H and reconstituted to the original volume with cold RIA or ELISA buffer. The reconstituted samples were stored at -70° C. until assayed. The assay for LTB4 was perforated according to the directions of the [^3 H]RIA kit or ELISA kit (Seragen). The total metabolite level in 1 ml of blood is calculated and reported as ng/10^6 neutrophils. Significance is determined by a one-way analysis of variance with LSD comparisons to control (p<0.05).

[1] = tested on: LT-dependent bronchoconstriction; experiment: Inhibition of Bronchoconstriction in Guinea Pigs Induced by Exogenously Administered Antigen; type: in vivo, Male guinea pigs
Protocol: 4. Inhibition of Brochoconstriction in Guinea Pigs Induced by Exogenously Administered Antigen
Male guinea pigs (Charles River, Wilmington, Mass.) were sensitized 3-4 weeks prior to antigen challenge by administration of 2 i.m. injections of ovalbumin, 1 into each hind limb (35 mg total). Sensitized animals (500-600 g) were fasted overnight prior to experimentation. Conscious animals were then dosed p.o. with drug or vehicle alone (0.5% Tween 80 in H2 O) at the indicated times prior to antigen challenge, or anesthetized animals were dosed i.v. with drug or vehicle alone (DMSO) 5 min prior to antigen challenge. Animals were anesthetized by urethane (2.8 g/kg i.p.). A carotid artery and jugular vein were cannulated to allow for the monitoring of blood pressure and the administration of drugs, respectively. The trachea was then cannulated and connected to a Harvard Apparatus rodent ventilator (S. Natick, Mass.). Spontaneous respiration was abolished by the administration of succinylcholine (2.5 mg/kg i.v.). The animals were then ventilated with room air at a rate of 65 breaths per min. Airway inflation pressure was measured using a Statham pressure transducer (Gould Instruments, Cleveland, Ohio) connected to the tracheal cannula via a side-arm and recorded on a Grass Instruments recorder (Quincy, Mass.). The tidal volume (approximately 10 cc/kg) was adjusted to give a baseline inflation pressure of 8-10 cm H2 O at end inspiration. Animals were then allowed 20 min to stabilize.
Following the stabilization period, animals were given i.v. injections of pyrilamine (5 mg/kg), propranolol (0.1 mg/kg) and indomethacin (10 mg/kg) at 15, 10 and 5 min, respectively, prior to antigen challenge. This pretreatment results in an LT-dependent bronchoconstriction following antigert challenge, which was accomplished by i.v. administration of ovalbumin (10 mg/kg). Only one bronchoconstriction per animal was induced. End-inspiratory inflation pressure (in cm H2 O over baseline) was measured at 5 min post-antigen challenge. A mean value and standard error for the % inhibition of control bronchoconstriction in each drug-treated group was then calculated.

Low Density Lipoprotein = experiment: Inhibition of Copper Ion Mediated Oxidation of Low Density Lipoprotein; type: biochemical; conditions: Cu+2 mediated oxidation of rabbit or monkey LDL, 37° C., 90 minutes, 532 nm
Protocol: 5. Inhibition of Copper Ion Mediated Oxidation of Low Density Lipoprotein
In this in vitro assay, the inhibition of Cu^+2 mediated oxidation of rabbit or monkey LDL by an invention compound is determined spectrophotometricallly. Oxidation of LDL results in the formation of LDL-diene which absorbs light at 532 nm. Inhibition of oxidation of LDL leads to a decrease in absorbance at 532 nm.
Rabbit or monkey LDL is prepared according to the procedures of Havel, Eder and Gragdon, "The Distribution and Chemical Composition of Ultracentrifugally Separated Lipoproteins in Human Serum,: J. Clin. Invest. 34, 1345-1353 (1955) and Parhtasarathy, Wieland and Steriberg, "A Role for Endothelial Cell Lipoxygenase in the Oxidative Modification of Low Density Lipoprotein," Proc. Natl. Acad. Sci. USA 86, 1046-1050 (1989). Test compound solutions are prepared by dissolving the invention compounds in ethanol at concentrations up to 248 μM. The medium used is Dulbecco's phosphate buffered saline containing 0.5 mg/ml bovine serum albumin. For standards, 0 to 10 μl of an aqueous solution of 1,1,3,3-tetraethoxypropane (1 μmol/ml H2 O) in 4.1 ml of medium is used.
Test compound solution ([…]) is added to 4 ml of medium in incubation tubes. To each tube is added 10 μl of LDL solution and 25 μl of aqueous copper sulfate solution (1.32 mg/ml H2 O). The tubes are incubated at 37° C. for 90 minutes and the oxidation reaction quenched by addition of 1 ml of thiobarbituric acid solution (0.67% in 50% acetic acid). The tubes are heated at 90° C. for 1 hour, then chilled in an ice bath and the chromophore extracted into 2 ml of n-butanol. Absorbence is read at 532 nm and the results are reported as nmols of malondialdehyde equivalents.
Significant differences (p<0.05) are determined by the Dunnett T-test or by the Student-Newman-Keuls Test for significant differences between means. The assay is conducted using several concentrations [I] of the inhibitor test compounds. The LDL solution concentrations at different experiments were either 1.5 mg/ml, 2.5 mg/ml or 10.3 mg/ml. The IC50 is determined by non-linear regression, plotting log [I] vs. % inhibition. (Reference: K. Yagi, Biochemical Medicine 15,212-216 (1976)).

[2] = dose 25 (mg/kg), pretreatment 3 hr

IC50 (Low Density Lipoprotein) | SMILES | % Inhibition of LTB4 (Lipoxygenase; [2]) | Bronchoconstriction % Inhibition ([1]; 25 mg/kg aerosol) | % Inhibition of LTB4 (Lipoxygenase; dose 1 (mg/kg), pretreatment 6 hr) | Bronchoconstriction % Inhibition ([1]; 20 mg/kg i.v.) | Bronchoconstriction % Inhibition ([1]; 25 mg/kg p.o.) | % Inhibition of LTB4 (Lipoxygenase; dose 5 (mg/kg), pretreatment 6 hr) | Bronchoconstriction % Inhibition ([1]; 10 mg/kg i.v.) | Bronchoconstriction % Inhibition ([1]; 10 mg/kg p.o.)
1.3 µM | Cc1oc(-c2ccccc2)nc1CCOc1ccc(C(C)N(O)C(N)=O)cc1 (centres unmarked) [Example 4] | 57% | 51% |  |  |  |  |  | 
0.82 µM | Cc1oc(-c2ccc(C(F)(F)F)cc2)nc1CCOc1ccc(CN(O)C(N)=O)cc1 [Example 13, 1-Hydroxy-1-[4-[2-[5-methyl-2(4-trifluoromethyl-phenyl)-oxazol-4-yl]-ethoxy]benzyl]-urea] |  |  | 50% | 23% |  |  |  | 
0.69 µM | Cc1oc(-c2ccccc2)nc1CCOc1ccc(CN(O)C(N)=O)cc1 [Example 1] | 79% | 67% |  | 66% | 25% |  |  | 
 | NC(=O)N(O)Cc1ccc(OCCc2noc(-c3ccccc3)n2)cc1 [Example 21, 1-hydroxy-1-[4-[2-(5-phenyl-[1,2,4]-oxadiazol-3-yl)-ethoxy]-benzyl]-urea] |  |  |  |  |  | 60% | 58% | 34%
